The record followed here is patent US20250034132A1, “PROLYL HYDROXYLASE DOMAIN-CONTAINING PROTEIN (PHD) INHIBITORS AND USES THEREOF” (Insilico Medicine IP Limited, priority 2021, published 2025).

This assay deals with PHD2 (Homo sapiens, UniProt Q9GZT9). Description: PHD2 enzymatic assay (AlphaScreen). Type of assay: biochemical. Particulars: IC50 from % inhibition. A general note: In Alpha technology, singlet oxygen from a donor bead excites a nearby acceptor bead.

pIC50: −log10 of the molar value.

PHD2, sequence (Q9GZT9 whole entry): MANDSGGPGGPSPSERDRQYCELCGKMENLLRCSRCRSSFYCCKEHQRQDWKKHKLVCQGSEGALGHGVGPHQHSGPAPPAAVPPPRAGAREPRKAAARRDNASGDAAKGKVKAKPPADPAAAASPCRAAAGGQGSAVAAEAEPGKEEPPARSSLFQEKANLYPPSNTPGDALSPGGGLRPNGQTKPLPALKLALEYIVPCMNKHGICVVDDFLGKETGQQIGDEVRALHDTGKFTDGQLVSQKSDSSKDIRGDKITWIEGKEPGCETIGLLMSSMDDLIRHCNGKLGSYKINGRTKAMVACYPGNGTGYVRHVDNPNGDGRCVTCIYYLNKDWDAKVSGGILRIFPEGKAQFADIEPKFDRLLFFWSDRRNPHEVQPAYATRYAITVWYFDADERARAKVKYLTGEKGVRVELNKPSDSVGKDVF

For `N#Cc1ccc(CNC(=O)c2ncc3nc(N4CC(N)C4)ccc3c2O)cn1` [Example 132], the pIC50 is more than 8.30.

Broadly, the pIC50 is the negative decadic logarithm of the IC50, by convention in mol/L.
